From patent US20050143472A1, “Novel treatment for pathologies associated with oxidative damage” (priority 2002, published 2005)
Where two headings read alike, the source gives them in different places.

Assays:
mPAO [1] = target: T1, mPAO (Mus musculus, UniProt Q8C0L6); test: Oxygraph assay of O2 consumption, progress-curve analysis; assay type: biochemical, murine
T1 construct: the full length cDNA of mpao was released by Nde I and Hind III treatment, and ligated into Nde I and Hind III sites of pET29c; made in house; host or cells: E. coli BL21 GOLD (DE3), plasmid pET-MPAO (pET29c)
T1 sequence (Q8C0L6 whole entry E184K/L285S/R416L/R417S/Q419R/E451A/V490I/S491G/V497A): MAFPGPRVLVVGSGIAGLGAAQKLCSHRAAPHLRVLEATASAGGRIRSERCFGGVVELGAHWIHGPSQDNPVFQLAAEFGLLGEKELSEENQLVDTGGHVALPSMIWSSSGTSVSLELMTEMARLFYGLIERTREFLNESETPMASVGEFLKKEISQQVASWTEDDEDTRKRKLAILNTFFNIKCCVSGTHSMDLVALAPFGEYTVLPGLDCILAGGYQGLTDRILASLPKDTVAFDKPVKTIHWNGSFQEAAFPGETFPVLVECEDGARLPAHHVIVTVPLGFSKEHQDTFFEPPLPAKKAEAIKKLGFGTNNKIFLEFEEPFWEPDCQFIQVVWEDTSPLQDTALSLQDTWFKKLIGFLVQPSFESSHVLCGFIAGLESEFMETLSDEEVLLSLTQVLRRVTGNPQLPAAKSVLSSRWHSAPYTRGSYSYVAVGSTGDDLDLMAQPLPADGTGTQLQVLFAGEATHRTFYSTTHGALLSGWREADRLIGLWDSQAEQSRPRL
Experimental: Some assays (oxygraph assays) were carried out by directly monitoring O2 consumption in air-saturated buffer ([O2]=0.237 mM) or buffer saturated with pure O2 at 30° C. ([O2]=1.12 mM). The depletion of O2 was detected with a Yellow Springs Instruments, Inc. Model 53 Oxygen Monitor equipped with a Clark electrode. […] Following a published procedure (Goudar et al., Biochim. Biophys. Acta 1429:377-383 [1999]), the data were fitted to the integrated Mechaelis-Menton equation. The analyses were done using Maple VI (Windows 2000) software (Waterloo Maple, Inc.) running on a PC computer. […] Inhibition by the H2O2, formed as a product of polyamine oxidation by mPAO, was assessed by addition of 2 μL of a 30 mg/mL (30,000 units/mg) solution of catalase, after [O2] reached zero.
The catalase immediately converted each mole of H2O2 to 0.5 mol of O2 (since [O2]=1.12 mM for pure O2-saturated buffer, then [O2]=0.56 mM immediately after catalase addition). In the presence of catalase, O2 depletion should occur at 0.5× the rate as it does in the absence of catalase (unless H2O2 inhibition is operating). With catalase present, each molecule of O2 will be converted eventually to H2O (4-electron equivalents), rather than to H2O2 (2-electron equivalents).

hpao mRNA = system: hpao mRNA
Experimental: In addition, a reverse-transcriptase-PCR (RT-PCR) experiment was performed to analyze the expression of hpao in OVCAR-3 and HL-60 cells. Briefly, about 10^6 to 10^7 cells were harvested and the total RNA of each sample was isolated by using the RNeasy miniprep kit (QIAGEN). A 1 μg mRNA sample was used for cDNA synthesis with the MMLV reverse transcriptase following the manufacturer's instructions provided with the Advantage RT-for-PCR Kit (Clontech). Human liver and placenta polyA mRNA were also obtained from Clontech. cDNA amplification was achieved following the SMART RACE™ cDNA Amplification method (Clontech). A pair of gene specific primers was generated based on the hpao cDNA sequence; hpao1 was the sense primer 5′-[…] ACCTTTC-3′ (SEQ ID NO:17), and hpao2R was the antisense primer 5′-[…] AGT-3′ (SEQ ID NO:18). Positive control amplimers for human G3PDH (glyceraldehyde-3-phosphate-dehydrogenase) were also used; the sense primer was 5′-[…] G-3′ (SEQ ID NO:19) and the antisense primer was 5′-[…] CT-3′ (SEQ ID NO:20). PCR was performed at 94° C. for 3 min, 25 cycles at 94° C. for 10 sec, 68° C. for 1 min, and 72° C. for 1 min.
In this Example, the method used to examine hpao mRNA production by cultured cells undergoing apoptosis is described.

mPAO [2] = target: T1, mPAO; test: Steady-state kinetic spectrophotometric assay of mPAO (H2O2 formation); assay type: biochemical, murine
Experimental: In this example the methods used to examine mPAO steady state kinetics are described. Spectrophotometric assays were done at 30° C. in a potassium phosphate buffer (e.g., 50 mM KH2PO4/KOH buffer, pH 7.6 saturated in air or in pure oxygen), using a published procedure which provides a continuous monitor of the H2O2 produced (Holt et al., Anal. Biochem. 244:384-392 [1997]). These assays were done in 1 mL cuvette with 0.8 mL of solution containing varying amounts of substrate, 1 mM vanillic acid, 0.5 mM 4-aminopyrine, 4 units of horseradish peroxidase, and 0.1-0.2 μg of mPAO. The reactions were monitored at 498 nm with a UVIKON 840 spectrophotometer (KONTRON Instruments) for the formation of the quinoneimine dye (ε498=4,650 M^−1cm^−1 at pH 7.6), the condensation product of vanillic acid and oxidized 4-aminopyrine. The latter is produced from 4-aminopyrine by the action of horseradish peroxidase that has been oxidized by H2O2 (Holt et al., supra [1997]). The assays were done at 25° C. by varying the concentration of the amine substrate, while the oxygen concentration in the assay solution was constant at the air-saturating level of 237 μM. The data were fit, by nonlinear regression to steady-state kinetic equations (McIntire et al., Biochem. J. 228:325-335 [1985]), which provided the values, and standard deviations thereof, for kcat′, KS′ and kcat′/KS′ (=Q, the specificity constant). [formula]
The dissociation constants, KD, for these and other amines were estimated in the following manner. It was assumed that the competition was competitive, since in the presence of the inhibitors, at a saturating N^1-acetyl-Spm concentration, the rate of the reaction was equal to the value of the true kcat. It was also assumed that the mechanism is of the ping-pong type. Thus, the applicable steady-state equation is (Segal, Enzyme Kinetics, John Wiley & Sons, New York, pp. 606-625 [1975]): [formula]
On the left, kcat and KS are the steady-state parameters for N^1-acetyl-Spm (S), and I and KI (=KD), represent the inhibitor and its inhibition constant, respectively. KIO and KO are the inhibition constant and Michaelis constant for O2, respectively. The equation can be converted to the expression on the right side when: [formula]
The expressions for kcat′ and KS′ (at the fixed [O2]=[…]) are the same as those when the inhibitor is absent. Since the values of kcat′ and KS″ were predetermined, inhibition assays were carried out where [S]≈KS″, which, in the absence of I, would give a rate, ν≈0.5×kcat″. In these assay, for each inhibitor, [I] was adjusted so the apparent rate was somewhat less then 0.5 kcat′. In this situation, after substitution and rearrangement, Equation 1 reduces to: [formula]
Since [I] and kcat′ are known, and ν is the measured rate in the presence of the inhibitor, the value of KI′ can be estimated. It is assumed that these apparent KI′ are good approximations of the true KI (=KD) values. […] The estimated KI′ values provided in Table 1, are the averages of these four values. If the reactions of the polyamine substrates and O2 with mPAO obeys a ping-pong type mechanism, the apparent values, kcat′/KS′, are equal to the true kcat/KS values.

## CC(=O)NCCCNCCCCNCCCN [N^1-acetyl-Spm, N^1-acetyl-spermine]
mPAO [1]; Michaelis constant for O2, saturating amine substrate
  KQ: 180 ± 20 µM
mPAO [1]; for O2, saturating amine substrate, pure O2-saturated buffer
  kcat/KQ: (4.4 ± 0.4) × 10^4 M^−1sec−^1
mPAO [1]; true KS calculated from apparent KS′ with KS = KS′(1 + KO/[O2])
  KS(calc): 3.1 ± 0.3 µM
mPAO [1]; true value, saturating substrate (3.7 mM), buffer saturated with pure O2 (1.12 mM)
  kcat: 8.0 ± 0.8 s⁻¹
Hpao mRNA; HL-60 cells, 48 hr exposure to high concentrations
  hpao mRNA level: no change
Hpao mRNA; OVCAR-3 cells, very quickly after exposure
  hpao mRNA level: significant levels of hpao mRNA were induced
mPAO [2]; apparent value, air-saturated 50 mM KH2PO4/KOH buffer pH 7.6, [O2] 237 μM
  kcat′: 4.53 ± 0.05 s⁻¹
mPAO [2]; apparent value, air-saturated buffer pH 7.6, [O2] 237 μM
  KS′: 1.78 ± 0.1 µM
mPAO [2]; in words
  substrate for mPAO (oxidation by mPAO): good mPAO substrates
mPAO [2]; specificity constant, air-saturated buffer pH 7.6
  kcat′/KS′: (2.54 ± 0.01) × 10^6 M^−1sec^−1
